Here are results for 5 compounds from US20240285571A1, “METHODS OF TREATING BONE INFECTIONS” (MICROBION CORPORATION, priority 2020, published 2024).

Read-outs that look alike come from different tables or passages of the source.

The subject of assay [1] is Corynebacterium resistens. Nature of the assay: MIC of baseline clinical isolates (Example 8). In kind it is cell-based. The settings on record: Corynebacterium resistens baseline isolates (N′ = 1), central laboratory, mITT. A digest of the protocol:
(§1)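 Isolates recovered on Day 1 and at later surgeries from infected bone, adjacent tissue, deep swabs and superficial wound/sinus sites. Identification and susceptibility to MBN-101 (BisEDT) and comparators run centrally per CLSI methods.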

The next assay has as its system Dermabacter hominis. Nature of the assay: MIC of baseline clinical isolates (Example 8). The format is cell-based. As to conditions: Dermabacter hominis baseline isolates (N′ = 1), central laboratory, mITT. A digest of the protocol:
as §1

For the next assay, the system named is E. coli. Nature of the assay: Broth microdilution MIC (Example 5). As to conditions: Escherichia coli. In kind it is cell-based, Escherichia coli. How it is done: Test and Comparator Agents: The test agents were stored at room temperature until assayed. […] The stock solutions were allowed to stand for at least 1 hr prior to use to auto-sterilize.
TestMedia: Test media were prepared and stored in accordance with guidelines from CLSI (4, 6, 7).
Broth Microdilution MC Testing (Aerobic Bacteria and Yeast): The broth microdilution assay method employed for the susceptibility testing of aerobic bacteria (excluding N. gonorrhoeae which was evaluated by agar dilution) and yeast essentially followed the procedures described by CLSI (3, 4, 7, 8) and employed automated liquid handlers to conduct serial dilutions and liquid transfers. […] These would become the ‘mother plates’ from which ‘daughter’ or test plates would be prepared. The drugs (300 μL at 40× the desired top concentration in the test plates) were dispensed into the appropriate well in Column 1 of the mother plates. The Biomek 2000 was used to make serial two-fold dilutions through Column 11 in the “mother plate”. The wells of Column 12 contained no drug and ultimately served as the organism growth control wells.
The daughter plates were prepared using the Biomek FX which transferred 5 μL of drug solution from each well of a mother plate to the corresponding well of the correct daughter plate in a single step.
A standardized inoculum of each organism was prepared per CLSI methods (3, 7). Isolated colonies of each test isolate were picked from the primary plate and a suspension was prepared to equal a 0.5 McFarland turbidity standard. Standardized suspensions were then diluted […] (1:100 for yeast, 1:20 for bacteria). After dilution, the inoculum suspensions were then transferred to compartments of sterile reservoirs divided by length (Beckman Coulter), and the Biomek 2000 was used to inoculate all plates. Daughter plates were placed on the Biomek 2000 in reverse orientation so that plates were inoculated from low to high drug concentration.
The Biomek 2000 delivered 10 μL of standardized inoculum into each well of the appropriate daughter plate for an additional 1:20 dilution.
Plates were stacked 4 high, covered with a lid on the top plate, placed into plastic bags, and incubated at 35° C. for approximately 24-48 hr for all yeast isolates and 16-24 hr for aerobic bacteria. Plates were viewed from the bottom using a plate viewer. […] MIC endpoints for the test agents and control compounds were read per CLSI criteria (3, 7).
On the technique in general: In broth dilution the organism is exposed to a series of concentrations in liquid medium.

Another assay relates to Enterobacteriaceae. Nature of the assay: MIC summary across Enterobacteriaceae (Example 5). The format is cell-based, E. coli, K. pneumoniae, Enterobacter cloacae. As to conditions: all evaluated Enterobacteriaceae isolates (Table 3). How it is done: Test and Comparator Agents: The test agents were stored at room temperature until assayed. All test agents were suspended and diluted in 100% dimethylsulfoxide (DMSO), and were ultimately tested at a final concentration of 0.06-64 μg/mL. The stock solutions were allowed to stand for at least 1 hr prior to use to auto-sterilize.
TestMedia: Test media were prepared and stored in accordance with guidelines from CLSI (4, 6, 7). […] Neisseria gonorrhoeae were evaluated by agar dilution using agar consisting of GC medium base (BD; Lot No. 4274618) supplemented with 1% IsoVitaleX (BD; Lot No. 5246843).
Broth Microdilution MC Testing (Aerobic Bacteria and Yeast): The broth microdilution assay method employed for the susceptibility testing of aerobic bacteria (excluding N. gonorrhoeae which was evaluated by agar dilution) and yeast essentially followed the procedures described by CLSI (3, 4, 7, 8) and employed automated liquid handlers to conduct serial dilutions and liquid transfers. […]
Plates were stacked 4 high, covered with a lid on the top plate, placed into plastic bags, and incubated at 35° C. for approximately 24-48 hr for all yeast isolates and 16-24 hr for aerobic bacteria. […] MIC endpoints for the test agents and control compounds were read per CLSI criteria (3, 7).

The subject of assay [2] is MABSC / M. abscessus biofilms. In words: Activity against biofilms (Example 7). In kind it is cell-based, Mycobacterium abscessus complex. The settings on record: AMT0130-8 MABSC CF-isolate.
The test system of the next assay is S. pneumoniae. As to conditions: S. pneumoniae MMX 6837 (ATCC 49619); cited from earlier work.

Regarding `CCC[C@@H]1C[C@@H](C(=O)N[C@@H]([C@H]2O[C@H](SC)[C@H](O)[C@@H](O)[C@H]2O)[C@H](C)Cl)N(C)C1` [CLI], in assay [1], the “Mean MIC” value is recorded as 0.50 mg/L and the “n (% resistant)” value was 0 (0.0) n (%). Moreover, in the assay on Dermabacter hominis, the “Mean MIC” value turned out to be 0.50 mg/L and the “n (% resistant)” value was 0 (0.0) n (%).
With `C[C@H]1COc2c(N3CCN(C)CC3)c(F)cc3c(=O)c(C(=O)O)cn1c23` [Levofloxacin], in assay [1], the MIC turned out to be 0.12 mg/L and the “n (% resistant)” value is on record as 0 (0.0) n (%). In the assay with Dermabacter hominis, the MIC worked out at 1 mg/L and the “n (% resistant)” value is given as 0 (0.0) n (%).
Consider `OCC(S)CS.[Bi]` (stereo not shown) [MB-2B, bismuth-2,3-dimercaptopropanol], for which the MIC in the assay on E. coli (ATCC25922, E. coli MMX 102 (ATCC 25922), QC, read-out: MIC) is 2 mg/L; against E. coli (ATCCBAA2469, E. coli MMX 5980 (ATCC BAA-2469), NDM-1) it was 2 mg/L; in the assay with E. coli (E. coli MMX 8423, ESBL, LevR CAZR GmR, read-out: MIC), 2 mg/L; in the assay on E. coli (E. coli MMX 8424, ESBL, CAZR, read-out: MIC), 4 mg/L; with E. coli (E. coli MMX 8425, ESBL, LevR CAZR GmR, read-out: MIC), 2 mg/L; in the assay on Enterobacteriaceae, 2 to 32 mg/L.
`CC(S)C(C)S.[Bi]` (stereo not shown) [MB-6, bismuth-2,3-butanedithiol]: in assay [2], the “Reductions in biofilm cell viability” value is on record as “only very modest reductions”.
Turning to `C[C@@H](O)[C@H]1C(=O)N2C(C(=O)O)=C(S[C@@H]3CN[C@H](C(=O)N(C)C)C3)[C@H](C)[C@H]12` [Meropenem], the “CLSI QC range of MIC” value in the assay with S. pneumoniae is recorded as “(0.06-0.25) μg/mL”.

A word on the MIC: it is the lowest concentration found to suppress growth.
